Results: patent US10815238B2, “Antimicrobial compounds and methods of making and using the same” (BIOVERSYS AG, priority 2013, dated 2020)

System: Eschericia coli (E. coli) strain ATCC25922
Assay: Standard microdilution assay, MIC against E. coli ATCC25922
Type: cell-based
Conditions: Escherichia coli; E. coli strain ATCC25922, standard microdilution assay; cutoff 16 micrograms/mL; read-out: MIC E. Coli
Method: The in vitro activity of the compounds of the present invention can be determined. Antimicrobial testing is typically performed to determine the minimum inhibitory concentration (MIC). Minimum inhibitory concentrations (MICs) are determined by the microdilution method in a final volume of 100 μl according to protocols outlined by The Clinical and Laboratory Standards Institute (CLSI). Performance standards for reference strains are assessed within the same experimental design to maintain quality control. See, for example, Clinical Laboratory Standards Institute: Methods for dilution antimicrobial susceptibility tests for bacteria that grow aerobically M7-A8. Approved Standard-Eighth Edition. Wayne, Pa.: CLSI; December 2008; and Clinical Laboratory Standards Institute: Performance Standards for Antimicrobial Susceptibility Testing M100-S20; Approved Standard-Twentieth Edition. Wayne, Pa.: CLSI; June 2010.
The compounds of the present invention were tested for antimicrobial activity. The Compounds 1-582 were run against Eschericia coli (E. coli) strain ATCC25922 and Compounds 320-582 were run against Staphylococcus aureus (S. aureus) 11540 strain using a standard microdilution assay to determine minimum inhibitory concentrations (MICs). […] It will be recognized by one skilled in the art that the compounds can be assessed against other bacterial organisms and that the presentation of data for activity against Eschericia coli and Staphylococcus aureus are illustrative and in no way is intended to limit the scope of the present invention. The compounds of the present invention can be assayed against a range of other microorganisms depending upon the performance activity desired to be gathered. Furthermore, the “+” and “−” representation and the selection of a cutoff value of 16 micrograms/mL is also illustrative and in no way is intended to limit the scope of the present invention.

Row | SMILES | MIC
1 | C[C@H](N)CC[C@@H](O)c1cc(Cl)c(F)c(-c2cc3cn(-c4ccc([C@H](C)NCCCNC(=N)N)cc4)c(=O)nc3[nH]2)c1 [Compound 310] | < 16 µg/mL
2 | CNCCNCc1ccc(-n2cc3cc(-c4cc(CCC[C@H](C)N)cc(Cl)c4F)[nH]c3nc2=O)cc1 [Compound 123] | < 16 µg/mL
3 | C[C@H](NCCCNC(=N)N)c1ccc(-n2cc3cc(-c4cc(CCC[C@@H](N)CO)cc(SC(F)(F)F)c4)[nH]c3nc2=O)cc1 [Compound 31] | < 16 µg/mL
4 | C[C@H](N)CCCc1cc(-c2cc3cn(-c4ccc([C@H](C)NCC[C@@H](C)N)cc4)c(=O)nc3[nH]2)cc(C(F)(F)F)c1 [Compound 199] | < 16 µg/mL
5 | C[C@H](N)CCCc1cc(-c2cc3cn(-c4ccc([C@H](C)NCCCNC(=N)N)cc4)c(=O)nc3[nH]2)cc([S+]([O-])C(F)(F)F)c1 (stereo partly drawn) [Compound 164] | < 16 µg/mL
6 | C[C@H](N)CCCc1cc(Cl)c(F)c(-c2cc3cn(-c4ccc([C@H](C)NCCCN)cc4)c(=O)nc3[nH]2)c1 [Compound 107] | < 16 µg/mL
7 | O=c1nc2[nH]ccc2cn1-c1ccc(CNCc2cccnc2)cc1 [Compound 109] | > 16 µg/mL
8 | CSC[C@@H](CCN[C@@H](C)c1ccc(-n2cc3cc(-c4cc(CCC[C@H](C)N)cc(Cl)c4F)[nH]c3nc2=O)cc1)NC(=N)N [Compound 287] | < 16 µg/mL
9 | C[C@H](N)CCCc1cc(Cl)c(F)c(-c2cc3cn(-c4ccc([C@H](C)NCC[C@@H](CCc5ccccc5)NC(=N)N)cc4)c(=O)nc3[nH]2)c1 [Compound 258] | < 16 µg/mL
10 | C[C@H](NCCCNC(=N)N)c1ccc(-n2cc3cc(-c4cc(COC[C@@H](N)CO)cc(SC(F)(F)F)c4)[nH]c3nc2=O)cc1 [Compound 80] | < 16 µg/mL
11 | C[C@H](N)CCCc1cc(SC(F)(F)F)cc(-c2cc3cn(-c4ccc(CNCc5nn[nH]n5)cc4)c(=O)nc3[nH]2)c1 [Compound 163] | > 16 µg/mL
12 | COc1ccc([C@H](c2ccc(SC)cc2)c2ccc(-n3cc4cc(-c5cc(CCC[C@H](C)N)cc(SC(F)(F)F)c5)[nH]c4nc3=O)cc2)cc1 [Compound 8] | > 16 µg/mL

The remaining lines, values ahead:

Row | MIC | SMILES
13 | > 16 µg/mL | C[C@H](N)CCCc1cc(Cl)c(F)c(-c2cc3cn(-c4ccc(CNCc5cccnc5)cc4)c(=O)nc3[nH]2)c1 [Compound 112]
14 | < 16 µg/mL | CC(C)[C@H](N)CCNCc1ccc(-n2cc3cc(-c4cc(CCC[C@H](C)N)cc(Cl)c4F)[nH]c3nc2=O)cc1 [Compound 155]
15 | < 16 µg/mL | C[C@H](N)CCCc1cc(Cl)c(F)c(-c2cc3cn(-c4ccc([C@H](C)NCC[C@@H](CCN)NC(=N)N)cc4)c(=O)nc3[nH]2)c1 [Compound 313]
16 | > 16 µg/mL | C[C@H](N)CCCc1cc(Cl)c(F)c(-c2cc3cn(-c4ccc(CNCC#N)cc4)c(=O)nc3[nH]2)c1 [Compound 165]
17 | < 16 µg/mL | C[C@H](N)CCCc1cc(SC(F)(F)F)cc(-c2cc3cn(-c4ccc([C@@H](NCCCNC(=N)N)c5ccc(S(C)(=O)=O)cc5)cc4)c(=O)nc3[nH]2)c1 [Compound 40]
18 | < 16 µg/mL | C[C@H](N)CCCc1cc(Cl)c(F)c(-c2cc3cn(-c4ccc([C@@H](N)C(=O)NCCNC(=N)N)cc4)c(=O)nc3[nH]2)c1 [Compound 256]
19 | < 16 µg/mL | C[C@H](N)CCCc1cc(Cl)c(F)c(-c2cc3cn(-c4ccc([C@H](C)NCC[C@@H](CO)NC(=N)N)cc4)c(=O)nc3[nH]2)c1 [Compound 264]
20 | < 16 µg/mL | C[C@H](N)CCCc1cc(-c2cc3cn(-c4ccc([C@H](C)N[C@@H](C)CCNC(=N)N)cc4)c(=O)nc3[nH]2)cc(C(F)(F)F)c1 [Compound 220]
21 | < 16 µg/mL | C[C@H](N)CCCc1cc(Cl)c(F)c(-c2cc3cn(-c4ccc([C@H](C)NCC[C@H](C)N)cc4)c(=O)nc3[nH]2)c1 [Compound 221]
22 | > 16 µg/mL | O=c1nc2[nH]ccc2cn1-c1ccc(CNCc2ccncc2)cc1 [Compound 126]
23 | < 16 µg/mL | C[C@H](N)CCCc1cc(Cl)c(F)c(-c2cc3cn(-c4ccc(CNCC[C@@H](C)NC(=N)N)cc4)c(=O)nc3[nH]2)c1 [Compound 188]
24 | < 16 µg/mL | C[C@H](N)CCCc1cc(Cl)c(F)c(-c2cc3cn(-c4ccc(C[C@@H](CCCN)NC(=N)N)cc4)c(=O)nc3[nH]2)c1 [Compound 229]
